From patent US11697648B2, “Fused pyrimidine pyridinone compounds as JAK inhibitors” (THERAVANCE BIOPHARMA R&D IP, LLC, priority 2019, dated 2023)

Key:
JAK3 = JAK3 (Homo sapiens (Human), UniProt P52333); assay: Biochemical JAK3 kinase assay (LanthaScreen); details: for JAK3 (pKi)-JAK1 (pKi): selectivity JAK3 over JAK1, difference of pKi
How it was run: (§1)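 GST-JAK + GFP-STAT1 peptide, HEPES pH 7.5/MgCl2/EGTA/Brij-35 buffer; cpd preincubation 1 h RT; ATP start, 1 h RT; stop with 10 mM EDTA + 2 nM Tb-anti-pSTAT1; TR-FRET 520/495. 4-parameter IC50 → pKi (Cheng-Prusoff).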

[1] = tested on: IL-2 stimulated STAT5 phosphorylation in Tall-1 human T cell line (JAK3); assay: Cellular JAK3 potency assay: inhibition of IL-2 stimulated pSTAT5 in Tall-1 T cells; type: cell-based; details: IL-2 stimulated pSTAT5, Tall-1 T cells
How it was run: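 AlphaLISA SureFire Ultra measures STAT5 Tyr694/699 phosphorylation in lysed Tall-1 human T cells. Cells were exposed to compound for 1 h at 37 °C before a 30 min IL-2 challenge (300 ng/ml final). Values are pIC50 means with standard deviation from signal-versus-concentration curves.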

Tyk2 = Tyk2 (Homo sapiens (Human), UniProt P29597); assay: Biochemical Tyk2 kinase assay (LanthaScreen)
How it was run: as §1

JAK1 = JAK1 (Homo sapiens (Human), UniProt P23458); assay: Biochemical JAK1 kinase assay (LanthaScreen)
How it was run: as §1

JAK2 = JAK2 (Homo sapiens (Human), UniProt O60674); assay: Biochemical JAK2 kinase assay (LanthaScreen)
How it was run: as §1

[2] = Colon and plasma mouse pharmacokinetics; type: in vivo; details: male Balb/c mice, 10 mg/kg PO, ratio of the colon AUC to the plasma AUC; for Kp: mouse, colon tissue / plasma
Protocol: Assay 5: Colon and Plasma Mouse Pharmacokinetics
To 6 male Balb/c mice was administered 10 mg/kg of compound in 1% HPMC+0.1% Tween-80 by PO administration. At 0.5, 2 and 6 hours after dose administration, animals were anesthetized, and terminal blood samples were collected by cardiac puncture, followed by collection of colon contents and colon tissue.
Blood samples were collected into K2EDTA and stored on wet ice until processed to plasma by centrifugation (12000 rpm at 4° C.). Plasma samples were transferred to cluster tubes and placed on dry ice prior to freezer storage. The colon contents from each animal were collected at each terminal blood collection time point. The colon tissues were flushed with saline and patted dry. The colon and colon content tissues were homogenized using sterile water containing 0.1% formic acid 9:1 (water:tissue, v/w). The homogenized tissues and colon contents were transferred to cluster tubes and placed on dry ice prior to freezer storage. All samples were analyzed using LC/MS/MS against analytical standards.
The composite pharmacokinetic parameters of the compounds were determined by non-compartmental analysis using Phoenix WinNonlin Version 6 (Certara, St. Louis, Mo.) and using mean values from 2 animals/time point. For plasma concentrations below the quantification limit (BQL), the lowest concentration measurable or the BLOQ (below limit of quantification) was used.
A colon to plasma ratio was determined as the ratio of the colon AUC to the plasma AUC.

Caco-2 cell monolayers = assay: Caco-2 permeation assay; type: in vitro ADME; details: 5 μM, A-B direction, with Verapamil (25 μM)
How it was run: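 Passive A-to-B permeability with P-gp inhibited by verapamil (25 μM); compound at 5 μM, n=2. Both compartments sampled at t0 and t120 and quantified by LC-MS/MS, giving apparent permeability in cm/sec from flux, area and concentration.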

Sequence of JAK3 (P52333 whole entry): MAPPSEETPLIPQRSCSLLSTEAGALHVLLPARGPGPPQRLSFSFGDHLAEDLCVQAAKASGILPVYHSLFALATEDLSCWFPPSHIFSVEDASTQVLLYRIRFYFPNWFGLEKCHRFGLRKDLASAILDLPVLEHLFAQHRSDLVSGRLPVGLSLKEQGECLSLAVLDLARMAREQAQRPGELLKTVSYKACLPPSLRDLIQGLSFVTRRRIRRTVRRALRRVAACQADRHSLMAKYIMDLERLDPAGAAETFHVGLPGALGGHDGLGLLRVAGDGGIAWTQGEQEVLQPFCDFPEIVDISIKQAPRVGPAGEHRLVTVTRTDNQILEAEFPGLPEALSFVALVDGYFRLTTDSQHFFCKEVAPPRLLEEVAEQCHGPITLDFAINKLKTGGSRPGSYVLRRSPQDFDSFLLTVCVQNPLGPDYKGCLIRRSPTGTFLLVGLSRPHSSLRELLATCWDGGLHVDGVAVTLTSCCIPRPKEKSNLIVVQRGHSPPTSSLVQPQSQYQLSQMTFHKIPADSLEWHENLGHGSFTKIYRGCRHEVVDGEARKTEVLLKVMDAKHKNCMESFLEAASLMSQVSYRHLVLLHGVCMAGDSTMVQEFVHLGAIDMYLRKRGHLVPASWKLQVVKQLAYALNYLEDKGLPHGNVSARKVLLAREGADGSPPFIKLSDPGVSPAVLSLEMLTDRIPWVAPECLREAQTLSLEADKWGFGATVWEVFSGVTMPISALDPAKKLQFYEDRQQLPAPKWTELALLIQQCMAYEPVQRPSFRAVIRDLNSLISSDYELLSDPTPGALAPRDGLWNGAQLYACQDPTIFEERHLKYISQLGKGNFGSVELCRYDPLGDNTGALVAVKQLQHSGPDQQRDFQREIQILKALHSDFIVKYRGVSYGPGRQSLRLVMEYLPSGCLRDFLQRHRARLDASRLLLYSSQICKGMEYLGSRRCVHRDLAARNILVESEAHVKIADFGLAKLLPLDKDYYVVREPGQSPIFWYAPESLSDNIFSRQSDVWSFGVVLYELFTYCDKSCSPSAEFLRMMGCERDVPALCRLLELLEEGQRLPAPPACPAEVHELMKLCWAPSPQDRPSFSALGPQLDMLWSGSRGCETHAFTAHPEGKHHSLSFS
Sequence of JAK2 (O60674 whole entry): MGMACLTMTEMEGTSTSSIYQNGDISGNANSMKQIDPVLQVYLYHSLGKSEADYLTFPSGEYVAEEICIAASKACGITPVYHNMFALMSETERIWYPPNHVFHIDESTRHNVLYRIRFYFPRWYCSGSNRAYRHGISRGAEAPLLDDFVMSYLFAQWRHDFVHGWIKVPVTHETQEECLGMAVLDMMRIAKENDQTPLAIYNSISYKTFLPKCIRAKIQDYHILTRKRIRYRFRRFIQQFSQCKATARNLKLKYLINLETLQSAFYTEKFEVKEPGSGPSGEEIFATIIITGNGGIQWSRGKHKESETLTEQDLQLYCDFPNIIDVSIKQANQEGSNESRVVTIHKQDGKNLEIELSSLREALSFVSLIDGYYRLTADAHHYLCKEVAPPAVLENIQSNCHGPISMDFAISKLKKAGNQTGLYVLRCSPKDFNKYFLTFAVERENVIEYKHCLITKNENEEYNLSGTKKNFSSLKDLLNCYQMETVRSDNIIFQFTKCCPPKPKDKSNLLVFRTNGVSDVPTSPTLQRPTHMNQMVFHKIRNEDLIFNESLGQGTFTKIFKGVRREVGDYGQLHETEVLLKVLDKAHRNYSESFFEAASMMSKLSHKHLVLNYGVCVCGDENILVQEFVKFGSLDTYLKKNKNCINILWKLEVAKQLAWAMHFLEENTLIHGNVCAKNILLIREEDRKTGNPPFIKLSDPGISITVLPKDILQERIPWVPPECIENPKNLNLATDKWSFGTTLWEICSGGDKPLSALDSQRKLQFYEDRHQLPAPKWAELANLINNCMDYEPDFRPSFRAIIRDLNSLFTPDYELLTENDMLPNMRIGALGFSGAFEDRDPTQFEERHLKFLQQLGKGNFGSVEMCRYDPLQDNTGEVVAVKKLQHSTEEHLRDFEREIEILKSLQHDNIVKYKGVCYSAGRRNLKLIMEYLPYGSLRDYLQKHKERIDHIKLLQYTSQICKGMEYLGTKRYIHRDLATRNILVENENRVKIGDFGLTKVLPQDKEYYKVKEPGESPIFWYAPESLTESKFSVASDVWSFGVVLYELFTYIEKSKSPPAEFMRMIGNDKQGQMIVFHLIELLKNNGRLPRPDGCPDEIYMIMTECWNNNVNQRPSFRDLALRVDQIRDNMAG
Sequence of Tyk2 (P29597 whole entry): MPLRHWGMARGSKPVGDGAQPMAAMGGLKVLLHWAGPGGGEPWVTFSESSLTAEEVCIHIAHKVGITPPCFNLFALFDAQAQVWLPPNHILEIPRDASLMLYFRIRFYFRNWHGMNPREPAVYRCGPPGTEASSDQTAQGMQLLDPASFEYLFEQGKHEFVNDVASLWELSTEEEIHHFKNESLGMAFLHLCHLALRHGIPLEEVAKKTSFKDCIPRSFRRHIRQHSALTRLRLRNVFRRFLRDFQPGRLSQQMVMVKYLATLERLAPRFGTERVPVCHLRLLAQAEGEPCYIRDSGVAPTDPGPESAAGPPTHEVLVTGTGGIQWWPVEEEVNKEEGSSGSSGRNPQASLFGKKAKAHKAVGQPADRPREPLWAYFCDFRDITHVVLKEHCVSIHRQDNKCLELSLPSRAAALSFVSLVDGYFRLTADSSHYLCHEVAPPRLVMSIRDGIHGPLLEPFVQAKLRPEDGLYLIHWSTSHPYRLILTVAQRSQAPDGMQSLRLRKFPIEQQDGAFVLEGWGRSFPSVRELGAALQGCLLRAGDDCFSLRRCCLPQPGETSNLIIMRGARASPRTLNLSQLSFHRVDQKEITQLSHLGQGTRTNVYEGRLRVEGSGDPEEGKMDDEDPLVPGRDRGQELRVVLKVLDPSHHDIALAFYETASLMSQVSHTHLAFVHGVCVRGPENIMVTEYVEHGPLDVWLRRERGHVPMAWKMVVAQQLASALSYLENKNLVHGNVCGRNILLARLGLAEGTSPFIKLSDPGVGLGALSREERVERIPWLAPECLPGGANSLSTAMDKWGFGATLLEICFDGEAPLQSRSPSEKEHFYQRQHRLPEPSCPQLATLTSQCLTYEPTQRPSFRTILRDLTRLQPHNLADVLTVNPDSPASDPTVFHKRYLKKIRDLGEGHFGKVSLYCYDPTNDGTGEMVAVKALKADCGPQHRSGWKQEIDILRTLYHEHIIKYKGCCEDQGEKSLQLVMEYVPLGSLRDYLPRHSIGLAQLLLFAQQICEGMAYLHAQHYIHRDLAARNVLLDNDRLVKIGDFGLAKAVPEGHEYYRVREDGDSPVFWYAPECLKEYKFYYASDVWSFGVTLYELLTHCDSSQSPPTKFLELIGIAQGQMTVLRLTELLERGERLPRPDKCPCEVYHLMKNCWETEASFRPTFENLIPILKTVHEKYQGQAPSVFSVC
Sequence of JAK1 (P23458 whole entry): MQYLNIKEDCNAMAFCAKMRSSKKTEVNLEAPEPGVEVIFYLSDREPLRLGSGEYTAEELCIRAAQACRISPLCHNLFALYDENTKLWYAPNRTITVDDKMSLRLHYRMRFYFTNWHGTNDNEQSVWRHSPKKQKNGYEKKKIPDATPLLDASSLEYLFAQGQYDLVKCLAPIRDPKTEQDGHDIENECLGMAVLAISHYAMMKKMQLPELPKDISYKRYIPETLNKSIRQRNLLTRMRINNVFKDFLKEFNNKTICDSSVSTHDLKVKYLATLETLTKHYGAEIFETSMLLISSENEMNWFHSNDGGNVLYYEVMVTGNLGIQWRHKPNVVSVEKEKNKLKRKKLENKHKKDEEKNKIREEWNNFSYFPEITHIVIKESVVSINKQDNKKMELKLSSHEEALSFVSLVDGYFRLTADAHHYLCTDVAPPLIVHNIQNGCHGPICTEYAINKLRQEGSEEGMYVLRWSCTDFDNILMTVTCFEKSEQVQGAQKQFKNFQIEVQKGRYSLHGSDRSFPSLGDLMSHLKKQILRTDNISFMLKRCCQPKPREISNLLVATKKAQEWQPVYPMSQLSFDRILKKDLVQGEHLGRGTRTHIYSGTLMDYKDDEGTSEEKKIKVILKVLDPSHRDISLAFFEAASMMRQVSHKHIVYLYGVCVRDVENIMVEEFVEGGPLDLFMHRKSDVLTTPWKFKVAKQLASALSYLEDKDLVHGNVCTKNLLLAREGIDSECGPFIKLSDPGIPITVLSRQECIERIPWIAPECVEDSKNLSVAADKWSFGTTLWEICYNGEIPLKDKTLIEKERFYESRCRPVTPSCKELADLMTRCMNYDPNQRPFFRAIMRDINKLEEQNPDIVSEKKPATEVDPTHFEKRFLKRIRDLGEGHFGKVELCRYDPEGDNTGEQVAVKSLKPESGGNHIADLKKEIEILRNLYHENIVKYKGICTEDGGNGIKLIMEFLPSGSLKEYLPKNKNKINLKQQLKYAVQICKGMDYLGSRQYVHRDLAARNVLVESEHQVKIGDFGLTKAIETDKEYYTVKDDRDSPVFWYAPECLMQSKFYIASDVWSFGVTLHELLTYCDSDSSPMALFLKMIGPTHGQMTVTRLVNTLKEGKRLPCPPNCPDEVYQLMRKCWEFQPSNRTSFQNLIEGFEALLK

Compound | JAK 3 (pKi) (JAK3) | JAK3 (pKi)-JAK1 (pKi) (JAK3) | Tall-1 (pIC50) [1] | Tyk 2 (pKi) (Tyk2) | JAK 1 (pKi) (JAK1) | JAK 2 (pKi) (JAK2) | Kp [2] | Caco Kp (Caco-2 cell monolayers) | colon to plasma ratio [2]
C=CC(=O)N1CC(CCn2c(=O)ccc3cnc(Nc4ccc(CN5CCOCC5)cc4)nc32)C1 [Example 44] | B (B represents pKi value between 9 and 10 (Ki between 1 nM and 0.1 nM)) | A (A represents a value of 3 or above) | B (B represents a pC50 value between 6.7 (included) and 7.5 (IC50 between 200 nM and 32 nM)) | E (E represents a pKi value of 7 or below (Ki of 100 nM or above)) | E (E represents a pKi value of 7 or below (Ki of 100 nM or above)) | E (E represents a pKi value of 7 or below (Ki of 100 nM or above)) | > 50 | – | –
C=CC(=O)N1CC(C(C)Cn2c(=O)ccc3cnc(Nc4ccc(N5CCN(C(C)=O)CC5)cc4)nc32)C1 (stereo not shown) [Example 156] | B (B represents pKi value between 9 and 10 (Ki between 1 nM and 0.1 nM)) | A (A represents a value of 3 or above) | B (B represents a pC50 value between 6.7 (included) and 7.5 (IC50 between 200 nM and 32 nM)) | E (E represents a pKi value of 7 or below (Ki of 100 nM or above)) | E (E represents a pKi value of 7 or below (Ki of 100 nM or above)) | E (E represents a pKi value of 7 or below (Ki of 100 nM or above)) | > 14 | – | –
C=CC(=O)N1CCN(CCn2c(=O)ccc3cnc(Nc4cnn(C(C)(C)COC)c4)nc32)[C@@H](CC)C1 [Example 203] | B (B represents pKi value between 9 and 10 (Ki between 1 nM and 0.1 nM)) | A (A represents a value of 3 or above) | B (B represents a pC50 value between 6.7 (included) and 7.5 (IC50 between 200 nM and 32 nM)) | E (E represents a pKi value of 7 or below (Ki of 100 nM or above)) | E (E represents a pKi value of 7 or below (Ki of 100 nM or above)) | E (E represents a pKi value of 7 or below (Ki of 100 nM or above)) | – | C (C represents a value between 10×10^−6 and 30×10^−6 cm/sec) | –
C=CC(=O)N1CCN(CCn2c(=O)ccc3cnc(Nc4ccc(N5CCN(C(C)C)CC5)cc4)nc32)CC1 [Example 205] | B (B represents pKi value between 9 and 10 (Ki between 1 nM and 0.1 nM)) | A (A represents a value of 3 or above) | A (A represents a pIC50 value≥7.5 (IC50≤32 nM)) | E (E represents a pKi value of 7 or below (Ki of 100 nM or above)) | E (E represents a pKi value of 7 or below (Ki of 100 nM or above)) | E (E represents a pKi value of 7 or below (Ki of 100 nM or above)) | – | B (B represents a value between 5×10^−6 and 10×10^−6 cm/sec) | –
C=CC(=O)N1CCN(CCn2c(=O)ccc3cnc(Nc4ccc(N5CCN(C(C)CC)CC5)cc4)nc32)CC1 (stereo not shown) [Example 206] | A (A represents a pKi value≥10 (Ki≤0.1 nM)) | A (A represents a value of 3 or above) | A (A represents a pIC50 value≥7.5 (IC50≤32 nM)) | E (E represents a pKi value of 7 or below (Ki of 100 nM or above)) | E (E represents a pKi value of 7 or below (Ki of 100 nM or above)) | E (E represents a pKi value of 7 or below (Ki of 100 nM or above)) | – | C (C represents a value between 10×10^−6 and 30×10^−6 cm/sec) | –
C=CC(=O)N1CCN(CCn2c(=O)ccc3cnc(Nc4ccc(N5CCN(CCCOC)CC5)cc4)nc32)CC1 [Example 207] | B (B represents pKi value between 9 and 10 (Ki between 1 nM and 0.1 nM)) | A (A represents a value of 3 or above) | B (B represents a pC50 value between 6.7 (included) and 7.5 (IC50 between 200 nM and 32 nM)) | E (E represents a pKi value of 7 or below (Ki of 100 nM or above)) | E (E represents a pKi value of 7 or below (Ki of 100 nM or above)) | E (E represents a pKi value of 7 or below (Ki of 100 nM or above)) | – | B (B represents a value between 5×10^−6 and 10×10^−6 cm/sec) | –
C=CC(=O)N1CCN(CCn2c(=O)ccc3cnc(Nc4ccc(N5CCN(CCOC)CC5)cc4)nc32)CC1 [Example 208] | B (B represents pKi value between 9 and 10 (Ki between 1 nM and 0.1 nM)) | A (A represents a value of 3 or above) | B (B represents a pC50 value between 6.7 (included) and 7.5 (IC50 between 200 nM and 32 nM)) | E (E represents a pKi value of 7 or below (Ki of 100 nM or above)) | E (E represents a pKi value of 7 or below (Ki of 100 nM or above)) | E (E represents a pKi value of 7 or below (Ki of 100 nM or above)) | – | B (B represents a value between 5×10^−6 and 10×10^−6 cm/sec) | –
C=CC(=O)N1CCN(CCn2c(=O)ccc3cnc(Nc4cnn(CC(F)F)c4)nc32)[C@@H](CC)C1 [Example 209] | B (B represents pKi value between 9 and 10 (Ki between 1 nM and 0.1 nM)) | A (A represents a value of 3 or above) | B (B represents a pC50 value between 6.7 (included) and 7.5 (IC50 between 200 nM and 32 nM)) | E (E represents a pKi value of 7 or below (Ki of 100 nM or above)) | E (E represents a pKi value of 7 or below (Ki of 100 nM or above)) | E (E represents a pKi value of 7 or below (Ki of 100 nM or above)) | – | A (A represents a value below 5×10^−6 cm/sec) | –
C=CC(=O)N1CC(CCn2c(=O)ccc3cnc(Nc4cnn(C5CCN(C(=O)CSC)CC5)c4)nc32)C1 [Example 210] | A (A represents a pKi value≥10 (Ki≤0.1 nM)) | A (A represents a value of 3 or above) | B (B represents a pC50 value between 6.7 (included) and 7.5 (IC50 between 200 nM and 32 nM)) | E (E represents a pKi value of 7 or below (Ki of 100 nM or above)) | E (E represents a pKi value of 7 or below (Ki of 100 nM or above)) | E (E represents a pKi value of 7 or below (Ki of 100 nM or above)) | – | A (A represents a value below 5×10^−6 cm/sec) | –
C=CC(=O)N1C[C@H](Nc2ncnc3[nH]ccc23)CC[C@@H]1C [PF-06651600, 2-propen-1-one, 1-[(2S,5R)-2-methyl-5-(7-pyrrolo[2,3-d]pyrimidin-4-ylamino)-1-piperidinyl], reference compound] | – | – | – | – | – | – | – | – | 2.8
